One may read the IC50 as the point on the concentration scale where inhibition reaches its midpoint.

Assay [1] has as its system DLBCL and rhabdoid INI1-deficient patients. On the set-up: method as in earlier work. The following applies: phase 1 clinical trial, monotherapy; cited from earlier work.
Assay [2] concerns Pfeiffer cells stably expressing Y111D/A677G/H689A. The assay can be described thus: Viability assay, Pfeiffer cells stably expressing Y111D/A677G/H689A EZH2. The note with it: Homo sapiens, read-out: IC50 cell viability.
Assay [3] concerns Pfeiffer cells stably-expressing Y111D/A677G EZH2 mutant. Briefly: Viability assay, Pfeiffer cells stably-expressing Y111D/A677G EZH2. The note with it: Homo sapiens, read-out: IC50 cell viability.
In assay [4] the test system is Pfeiffer cells stably-expressing Y111D/Y641F EZH2 mutant. Briefly: Viability assay, Pfeiffer cells stably-expressing Y111D/Y641F EZH2.
Assay [5] deals with Pfeiffer cells (Parental). Briefly: Viability assay (Cell-Titer-Glo, 6 days), parental Pfeiffer cells. In kind it is cell-based. The note with it: Homo sapiens.
The subject of assay [6] is H3K27me3 in Pfeiffer cells stably-expressing Y111D/A677G EZH2 mutant. The assay can be described thus: Cellular H3K27me3 AlphaLISA, Pfeiffer cells stably-expressing Y111D/A677G EZH2. The following applies: Homo sapiens, read-out: IC50 H3K27me3. A general note: Bead proximity is the source of the signal in Alpha formats.
For another assay, the system named is E-200 Pfeiffer cells. Briefly: Viability assay, EPZ-6438-resistant E-200 Pfeiffer cells. In kind it is cell-based. The following applies: Homo sapiens, read-out: IC50 cell viability.
For assay [7], the system named is H3K27me3 in E-200 Pfeiffer cells. Briefly: Cellular H3K27me3 AlphaLISA, E-200 Pfeiffer cells. The following applies: Homo sapiens; Pfeiffer E-200; Figure 3B. In kind it is cell-based. As to the method: Cells were plated at 500 cells/well in 10% DMEM, 50 uL/well in 384 well plates. […] DMSO (0.1%) was used as a vehicle control. Plates were incubated for 72 hours at 37°C. […] Plates were read using AlphaLISA protocol on Envision (Perkin Elmer). […] Pfeiffer cells were treated overnight with 100 μg/mL of N-ethyl-N-nitrosourea (ENU; Sigma Aldrich, St. […] After 7 days, cells were dosed again with fresh compound and grown until outgrowth (3 to 4 weeks). […] Ion semiconductor sequencing (Ion Torrent) and single molecule real time sequencing (PacBio) were performed at Molecular MD and Expression analysis (Quintiles), respectively.

Assay [8] relates to H3K27me3 in Pfeiffer cells (Parental). The assay can be described thus: Cellular H3K27me3 AlphaLISA, parental Pfeiffer cells. In kind it is cell-based. The following applies: Homo sapiens, Figure 3B. As to the method: Cells were plated at 500 cells/well in 10% DMEM, 50 uL/well in 384 well plates. […] DMSO (0.1%) was used as a vehicle control. Plates were incubated for 72 hours at 37°C. […] Plates were read using AlphaLISA protocol on Envision (Perkin Elmer).

The subject of a further assay is E-100 Pfeiffer cells. Briefly: Viability assay, EPZ-6438-resistant E-100 Pfeiffer cells. In kind it is cell-based. The note with it: Homo sapiens, read-out: IC50 cell viability.

Read-outs that look alike come from different tables or passages of the source.

Turning to `CCN(c1cc(-c2ccc(CN3CCOCC3)cc2)cc(C(=O)NCc2c(C)cc(C)[nH]c2=O)c1C)C1CCOCC1` [EPZ-6438], the clinical response entry in assay [1] was “durable objective responses”.

Turning to `CC[C@H](C)n1cc(C)c2c(C(=O)NCc3c(C)cc(C)[nH]c3=O)cc(-c3ccc(N4CCNCC4)nc3)cc21` [GSK126], the IC50 in assay [2] was found to be 25 ± 9 nM; in assay [3], 2670 ± 1370 nM; in assay [4] (Homo sapiens, Pfeiffer, read-out: IC50 cell viability), 111 ± 35 nM; in assay [5] (Parental Pfeiffer, Figure 1C, three independent experiments), 23 ± 5 nM; in assay [5] (Pfeiffer Parental, Figure 3C), 33 ± 7 nM; in assay [5] (Pfeiffer Parental, Figure 4B) it was 30 ± 5 nM. Besides, the IC50 in [6] is 5000 ± 1590 nM; in the assay with E-200 Pfeiffer cells (E-200, Unwash, Figure 1E) it was 3150 ± 508 nM; with E-200 Pfeiffer cells (E-200, Wash 8 weeks (drug withdrawal), Figure 1E), 2010 ± 1560 nM; in the assay with E-200 Pfeiffer cells (E-200 Pfeiffer, Figure 1C), 3980 ± 994 nM; in [7] it was above 10000 nM; in assay [8], 36 ± 27 nM. In addition, the IC50 in the assay on E-100 Pfeiffer cells (E-100, Unwash, Figure 1E) is 4030 ± 370 nM; with E-100 Pfeiffer cells (E-100, Wash 8 weeks (drug withdrawal), Figure 1E) it was 1220 ± 89 nM; with E-100 Pfeiffer cells (E-100 Pfeiffer, Figure 1C), 3960 ± 1040 nM. The “increase in IC50 values” in [4] (Y111D/Y641F, both growth and H3K27 tri-methylation) is 3–4 fold.

The values are drawn from article PMC4741719, “Acquisition of a single EZH2 D1 domain mutation confers acquired resistance to EZH2-targeted inhibitors” (Oncotarget, 2015).
